Common to all, as to assay type: cell-based
The target of assay [1] is T1, FGF-2 (Homo sapiens, UniProt P09038).
T1 construct: purchased Peprotech 100-18C
Kind of assay: FGF-2 induced sprouting of HUVEC, spheroid-based cellular angiogenesis assay. The following applies: FGF-2 25 ng/mL preincubated with compound, 24 h. A digest of the protocol: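 Spheroids of 400 HUVEC (passage 3–4), embedded in collagen gel, were stimulated with FGF-1, FGF-2 or VEGF-A (final 25 ng/mL) preincubated 30 min at 37°C with compound (final 1.56–100 μM).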

In assay [2] the test system is GM-CSF. The assay can be described thus: Cytokine release after LPS induction on human whole blood: GM-CSF. As to the method: (§1) Aim of this in vitro method is to assess compounds effects on release of a panel of cytokines from whole blood following lipopolysaccharide (LPS) induced inflammatory reaction. Whole blood was incubated with compounds for 1 h prior to LPS induction. Cytokine levels in blood were measured using a multiplex FACS-based panel.
(§2) IC50 values determined for the tested compounds expressed in microM [μM] and the values for the inhibition of cytokines were listed for each compound.
(§3) Effect on cytokines release after LPS induction was performed on the compounds dissolved in DMSO or H2O to reach 10-fold concentrated stock solutions and dissolved in culture media.
(§4) Test system: Whole blood was removed from a single donor (into lithium heparin coated tubes; BD Vacutainer; 367886) and diluted 1:5 with RPMI 1640 (Thermo Fisher, 61870036). Within 30 minutes of sampling, blood was incubated with compounds for 1 h prior to LPS stimulation (O111:B4—Sigma L4391; 10 ng/ml final concentration). Stimulation continued under standard cell culture conditions (37° C. with 5% CO2) overnight (18 h), after which plates were centrifuged and supernatant removed and frozen at −80° C. until used for analyses.
(§5) Dilution of test compounds: 10×concentrated solutions (concerning to the final assay concentrations) of each test compound were prepared with the appropriate solvent (in DMSO or in water). These 10× compound solutions (10 μl) were then added to 90 μl pre-diluted whole blood (whole blood: RPMI1640, 1:5) resulting in the final assay concentration.
(§6) Test method: Diluted whole blood (80 μl) was pre-incubated with compounds (10 μl) to give final assay concentrations of 100, 30, 10, 3, 1, 0.3 and 0.1×10^−6M. Blood was incubated at 37° C. with 5% CO2 for 1 h. LPS was diluted in cell culture media to a concentration of […]; 10 μl was added to the whole blood to give a final concentration of 10 ng/ml. Plates were incubated at 37° C. for 18 h. Plates were centrifuged at 3,000 RPM for 5 minutes at 4° C. and supernatant removed and frozen at −80° C. until FACS analysis was carried out.
(§7) Cytokine release was measured using a custom multiplex system (ELISA Genie) according to manufacturers instructions. Prepared samples were run on an Attune NxT flow cytometer (Thermo Fisher).
(§8) Quantification of cytokine release inhibition: known concentration standards were run as part of the cytokine panel to allow quantification of each cytokine concentration in each sample. This was carried out using FCAP Array v3.0 software.
(§9) Results: The dose response relationship on cytokine release following LPS induction of inflammatory response in whole blood was assessed for all compounds. IC50 values were determined for each compound for a panel of cytokines (GM-CSF, IFN-gamma, IL-1beta, IL-2, IL-4, IL-5, IL-6, IL-8, IL-9, IL-10, IL-12p40, IL-13, IL-17A, IL-17F, IL-18, IL-21, IL-22, IL-33, TGF-beta, TNF-alpha, TNF-beta).

Assay [3] relates to IL-21. The assay can be described thus: Cytokine release after LPS induction on human whole blood: IL-21. Here is the method:
as §1, §2, §3, §4, §5, §6, §7, §8, §9

The mark [4] stands for this setting: Homo sapiens, LPS 10 ng/ml, 18 h, read-out: Whole Blood: GM-CSF IC50.
The mark [5] stands for this setting: human whole blood, inhibition of LPS induced inflammation, read-out: IC50 GM-CSF.
Where [6] appears, read: Homo sapiens, LPS 10 ng/ml, 18 h, read-out: Whole Blood: IL-21 IC50.
[7] abbreviates: human whole blood, inhibition of LPS induced inflammation, read-out: IC50 IL-21.

Where two headings read alike, the source gives them in different places. Where only a bound is given, the exact number is not on record here.

T1 sequence (P09038 134-288): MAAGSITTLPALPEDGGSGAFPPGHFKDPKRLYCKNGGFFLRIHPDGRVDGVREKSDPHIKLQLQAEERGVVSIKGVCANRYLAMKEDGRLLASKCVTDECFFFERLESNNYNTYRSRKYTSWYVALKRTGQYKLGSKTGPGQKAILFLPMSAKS

On to `O=C(O)c1cc(O)c(C(=O)Nc2ccc(-c3nnn[nH]3)cc2)cc1O` [Ia-003a-Tz, 4-(4-(1H-tetrazol-5-yl)phenyl-aminocarbonyl)-2,5-dihydroxybenzoic acid], for which the 50% inhibitory concentration (IC50) in assay [1] was 45 µM; in assay [2] (setting [4]), greater than 100 µM; in assay [2] (setting [5]) it was 100 µM; in assay [3] (setting [6]), 1.49 µM; in assay [3] (setting [7]), 1.49 µM.
On to `O=C(O)c1cc(O)cc(CSCc2cc(O)cc(C(=O)O)c2O)c1O` [IVc-058a, 3-((2,5-Dihydroxy-3-carboxyphenyl)methylthiomethyl)-2,5-dihydroxybenzoic acid], for which the half-inhibitory concentration (IC50) in assay [1] was 4.9 µM; in assay [2] (setting [4]), greater than 100 µM; in assay [2] (setting [5]) it was 100 µM; in assay [3] (setting [6]), 3.2 µM; in assay [3] (setting [7]) it was 3.2 µM.
For the compound `O=C(O)Cc1cc(O)c(C(=O)Nc2ccccc2-c2nnn[nH]2)cc1O` [IIIa-001aTz], the IC50 was 14 µM in assay [1]; greater than 100 µM in assay [2] (setting [4]); 100 µM in assay [2] (setting [5]); 3 µM in assay [3] (setting [6]); 3 µM in assay [3] (setting [7]).
In the case of `O=C(Nc1ccccc1-c1nnn[nH]1)c1cc(O)c(C(=O)Nc2ccccc2-c2nnn[nH]2)cc1O` [Ic-001aTz2, N1,N4-bis(2-(1H-tetrazol-5-yl)phenyl)-2,5-dihydroxyterephthalamide], the half-inhibitory concentration (IC50) in assay [1] is 70 µM; in assay [2] (setting [4]) it was greater than 100 µM; in assay [3] (setting [6]) it was 32 µM.
In the case of `O=C(O)c1cc(O)c(C(=O)Nc2ccccc2-c2nnn[nH]2)cc1O` [Ia-001a-Tz, 4-(2-(1H-tetrazol-5-yl)phenyl-aminocarbonyl)-2,5-dihydroxybenzoic acid], the concentration for half-maximal inhibition (IC50) in assay [1] was 20 µM; in assay [2] (setting [4]) it was greater than 100 µM; in assay [2] (setting [5]) it was 100 µM; in assay [3] (setting [6]) it was greater than 100 µM; in assay [3] (setting [7]), 100 µM.
Turning to `O=C(O)Cc1cc(O)c(C(=O)Nc2c(C(=O)O)cccc2C(=O)O)cc1O` [IIIa-013a, 2-(4-(carboxymethyl)-2,5-dihydroxybenzamido)isophthalic acid], the IC50 in assay [1] was 31 µM; in assay [2] (setting [4]) it was 27.8 µM; in assay [2] (setting [5]), 27.8 µM; in assay [3] (setting [6]) it was 1.63 µM; in assay [3] (setting [7]) it was 1.63 µM.
In the case of `COC(=O)c1cc(OC(C)=O)cc(CS(=O)(=O)Cc2cc(OC(C)=O)cc(C(=O)OC)c2OC(C)=O)c1OC(C)=O` [IVc-059a-E2-A4], the IC50 in assay [1] is no less than 200 µM; in assay [2] (setting [4]) it was 1.83 µM; in assay [2] (setting [5]), 1.83 µM; in assay [3] (setting [6]), greater than 100 µM; in assay [3] (setting [7]), 100 µM.
For the compound `O=C(O)c1cc(NC(=O)c2cc(O)c(C(=O)O)cc2O)cc(NC(=O)c2cc(O)c(C(=O)O)cc2O)c1` [Ib-010a, 3,5-bis(2,5-dihydroxy-4-carboxybenzoylamino)benzoic acid], the IC50 in assay [1] is 3.8 µM; in assay [2] (setting [4]), greater than 100 µM; in assay [2] (setting [5]), 100 µM; in assay [3] (setting [6]), 67.8 µM; in assay [3] (setting [7]), 67.8 µM.
Consider `O=C(O)c1cc(O)cc(CS(=O)(=O)Cc2cc(O)cc(C(=O)O)c2O)c1O` [IVc-059a, 3-((2,5-Dihydroxy-3-carboxyphenyl)methylsulfonylmethyl)-2,5-dihydroxybenzoic acid], for which the half-maximal inhibitory concentration (IC50) in assay [1] was 2.7 µM; in assay [2] (setting [4]), greater than 100 µM; in assay [2] (setting [5]) it was 100 µM; in assay [3] (setting [6]), 1.87 µM; in assay [3] (setting [7]) it was 1.87 µM.
With `O=C(O)c1cc(NC(=O)c2cc(O)c(C(=O)Nc3ccc(O)c(C(=O)O)c3)cc2O)ccc1O` [Ic-007a, 5-(4-(3-carboxy-4-hydroxyphenylaminocarbonyl)-2,5-dihydroxybenzamido)-2-hydroxy benzoic acid], the IC50 is greater than 100 µM in assay [2] (setting [4]), 100 µM in assay [2] (setting [5]), 1.9 µM in assay [3] (setting [6]) and 1.9 µM in assay [3] (setting [7]).
On to `O=C(O)c1cc(O)c(C(=O)Nc2ccccc2C(=O)O)cc1O` [Ia-001a, 4-(2-carboxyphenylaminocarbonyl)-2,5-dihydroxybenzoic acid], for which the half-maximal inhibitory concentration (IC50) in assay [1] was 39 µM; in assay [2] (setting [4]), greater than 100 µM; in assay [2] (setting [5]) it was 100 µM; in assay [3] (setting [6]), greater than 100 µM; in assay [3] (setting [7]) it was 100 µM.
As for `O=C(O)c1cc(O)ccc1NC(=O)c1cc(O)cc(C(=O)Nc2ccc(O)cc2C(=O)O)c1O` [IIc-009a, 2-(3-(2-carboxy-4-hydroxyphenylaminocarbonyl)-2,5-dihydroxybenzamido)-5-hydroxyl benzoic acid], the IC50 was greater than 100 µM in assay [2] (setting [4]), 100 µM in assay [2] (setting [5]), 8.01 µM in assay [3] (setting [6]) and 8.01 µM in assay [3] (setting [7]).
As for `O=C(O)c1ccccc1CNC(=O)c1cc(O)cc(C(=O)O)c1O` [IIa-053a, 3-(2-Carboxyphenylmethylaminocarbonyl)-2,5-dihydroxybenzoic acid], the half-inhibitory concentration (IC50) is 18 µM in assay [1]; greater than 100 µM in assay [2] (setting [4]); 100 µM in assay [2] (setting [5]); greater than 100 µM in assay [3] (setting [6]); 100 µM in assay [3] (setting [7]).
On to `O=C(O)c1cc(NC(=O)c2cc(O)cc(C(=O)Nc3ccc(O)c(C(=O)O)c3)c2O)ccc1O` [IIc-007a, 5-(3-(3-carboxy-4-hydroxyphenylaminocarbonyl)-2,5-dihydroxybenzamido)-2-hydroxy benzoic acid], for which the half-inhibitory concentration (IC50) in assay [1] amounted to 91 µM; in assay [2] (setting [4]), 26 µM; in assay [2] (setting [5]), 26 µM; in assay [3] (setting [6]), 9.41 µM; in assay [3] (setting [7]), 9.41 µM.
For the compound `CC(=O)N(Cc1cc(O)c(C(=O)O)cc1O)Cc1cc(O)c(C(=O)O)cc1O` [IIIc-057a, N,N-Bis(4-carboxy-2,5-dihydroxyphenylmethyl)acetamide], the IC50 in assay [1] is 77 µM; in assay [2] (setting [4]), greater than 100 µM; in assay [2] (setting [5]) it was 100 µM; in assay [3] (setting [6]) it was 1.56 µM; in assay [3] (setting [7]) it was 1.56 µM.
With `O=C(O)c1cc(O)c(C(=O)Nc2ccccc2S(=O)(=O)O)cc1O` [Ia-001c, 2,5-dihydroxy-4-(2-sulfophenylaminocarbonyl)benzoic acid], the 50% inhibitory concentration (IC50) in assay [1] is 13 µM; in assay [2] (setting [4]), greater than 100 µM; in assay [2] (setting [5]) it was 100 µM; in assay [3] (setting [6]), greater than 100 µM; in assay [3] (setting [7]) it was 100 µM.
For the compound `O=C(O)c1cc(O)c(CN(Cc2cc(O)c(C(=O)O)cc2O)Cc2cc(O)c(C(=O)O)cc2O)cc1O` [IIIc-061a, Tris(4-carboxy-2,5-dihydroxyphenylmethyl)amine], the IC50 came out at 7.6 µM in assay [1]; 31.2 µM in assay [2] (setting [4]); 31.2 µM in assay [2] (setting [5]); 6.38 µM in assay [3] (setting [6]); 6.38 µM in assay [3] (setting [7]).
Regarding `O=C(O)c1cc(NC(=O)c2cc(O)c(C(=O)Nc3ccccc3-c3nnn[nH]3)cc2O)ccc1O` [Ic-001a-Tz/004a, 5-(4-(2-(1H-tetrazol-5-yl)phenylaminocarbonyl)-2,5-dihydroxybenzamido)-2-hydroxy benzoic acid], the IC50 worked out at 87 µM in assay [1]; 3.4 µM in assay [2] (Homo sapiens, 18 h, read-out: Whole Blood: GM-CSF IC50); 3.4 µM in assay [2] (Homo sapiens, read-out: IC50 GM-CSF); 0.3 µM in assay [3] (Homo sapiens, 18 h, read-out: Whole Blood: IL-21 IC50); 0.3 µM in assay [3] (Homo sapiens, read-out: IC50 IL-21).
For `O=C(O)c1cc(NC(=O)c2cc(O)c(C(=O)O)cc2O)cc(C(=O)O)c1` [Ia-015a, 5-(4-carboxy-2,5-dihydroxybenzamido)isophthalic acid], the IC50 was determined as 9.3 µM in assay [1]; 2.76 µM in assay [2] (setting [4]); 2.76 µM in assay [2] (setting [5]); 57.2 µM in assay [3] (setting [6]); 57.2 µM in assay [3] (setting [7]).
Regarding `CCOC(=O)c1cc(NC(=O)c2cc(O)c(C(=O)OCC)cc2O)cc(NC(=O)c2cc(O)c(C(=O)OCC)cc2O)c1` [Ib-010a-E3, ethyl 3,5-bis(2,5-dihydroxy-4-ethoxycarbonylbenzoylamino)benzoate], the IC50 in assay [2] (setting [4]) is greater than 100 µM; in assay [2] (setting [5]) it was 100 µM; in assay [3] (setting [6]), greater than 100 µM; in assay [3] (setting [7]), 100 µM.

The record behind these values is US20230150951A1, “2,5- OR 2,6-DISUBSTITUTED HYDROQUINONE DERIVATIVES WITH AT LEAST ONE CARBOXY, SULFO OR AMIDO GROUP USEFUL AS MEDICAMENTS” (OM PHARMA SA, priority 2020, published 2023).
